In US20240245711A1, “A 19-NOR C3,3-DISUBSTITUTED C21-N-PYRAZOLYL STEROID FOR THE TREATMENT OF MAJOR DEPRESSIVE DISORDER” (Sage Therapeutics, Inc., priority 2021, published 2024):
Entries after “also recorded” stand apart in the source; their conditions may differ.

Tested on: adult subjects with Major Depressive Disorder
Assay: Phase 3 open-label 1-year study: safety and tolerability (TEAEs, SAEs, C-SSRS)
Type: in vivo, human
Details: for Subjects reporting TEAEs leading to dose reduction: Low dose cohort; for Subjects with Treatment Cycle Period TEAE / Subjects with Treatment Period TEAE: Study Period 1 only
Method: Primary Objective: To determine the safety and tolerability of initial treatment and re-treatment(s) with Compound (1) in adults with Major Depressive Disorder (MDD) currently experiencing a major depressive episode (MDE) over a 1-year period.
Study Population: Subjects were 18-75 years old, diagnosed with major depressive disorder (MDD) with a MADRS total score of ≥28 and a HAM-D total score of ≥20 at Screening and Day 1 (prior to dosing).
Treatment Groups: The 30 mg and 50 mg dose groups were separated by time of enrollment. The study is comprised of two cohorts: one with Compound (1) 30 mg as a starting dose (30 mg Cohort: n=725), an initial cohort with Compound (1) 50 mg as a starting dose (50 mg Cohort: n=199). A patient receiving Compound (1) 30 mg could be dose reduced to 20 mg and patients receiving Compound (1) 50 mg could be dose reduced to 40 mg (based on tolerability). In all cohorts, Compound (1) is self-administered by patients as an oral therapy once nightly with food for 14 days.
The study has a Screening Period of up to 28 days, a 14-day Treatment Period, and up to 1 year of Follow-up. FIG. 1 is an overview of the study.
Antidepressants were permitted provided subjects were on a stable dose for at least 60 days prior to Day 1 and agreed to continue on the stable dose through the follow-up period (Day 42). Initiation of new antidepressants or any other medications that may potentially have an impact on efficacy or safety endpoints were not allowed between screening and completion of the Day 42 assessments.
Eligible subjects were given Compound (1)—to be taken at home in the evening with meal.
Subjects who continued in the Observation Period were monitored remotely via PHQ-9 assessment every two weeks. If PHQ-9 score was >=10 at any assessment, PHQ-9 assessment was switch to every week until the score came down below 10 or the subject was dosed with Compound (1) in a subsequent cycle, whichever was earlier. A subject was to come back to the site for HAM-D assessment within a week of PHQ-9 score >=10; if the HAM-D total score >=20 and at least 56 days had elapsed since the last dose of Compound (1), another dosing cycle of Compound (1) were to start. If any of these criteria were not met, the subject couldn't be treated with Compound (1) at that time. Without the trigger of PHQ-9>=10 the subject was to have a clinic visit every 8 weeks. A subject could have at most 5 cycles of treatment within a year. FIG. 2 is a depiction of the eligibility criteria of the study.
Dose reduction from 30 mg to 20 mg or 50 mg to 40 mg was allowed in any treatment cycle if the safety and/or tolerability of the subject so warrants. […] Subjects who dose reduced from 30 mg to 20 mg still started with 30 mg in the next treatment cycle.
The cohorts pertaining to the different doses that the subjects received were defined as following: • 50 mg cohort: This cohort includes subjects who have initiated treatment with 50 mg and received re-treatment with 50 mg only. • 30 mg cohort: This cohort includes subjects who have initiated treatment with 30 mg regardless of the dose they have received in re-treatments. • Low dose cohort: This cohort includes subjects who have initiated treatment with 30 mg and received re-treatment with 30 mg only. • Dose switch cohort: This cohort includes subjects who have received initial treatment with 30 mg and at least one subsequent re-treatment with 50 mg. • Study Period X: starts on the date of the first dose of Compound (1) in cycle X and goes up to one day prior to the first dose of the next cycle. […]

[1] = Low Dose Cohort, ATD use at period-specific baseline No, Study Period 3
[2] = Low Dose Cohort, ATD use at period-specific baseline No, Study Period 4
[3] = Low Dose Cohort, ATD use at period-specific baseline No, Study Period 5
[4] = Low Dose Cohort, ATD use at period-specific baseline Yes, Study Period 1
[5] = Low Dose Cohort, ATD use at period-specific baseline Yes, Study Period 2
[6] = Low Dose Cohort, ATD use at period-specific baseline Yes, Study Period 3
[7] = Low Dose Cohort, ATD use at period-specific baseline Yes, Study Period 4
[8] = Low Dose Cohort, ATD use at period-specific baseline Yes, Study Period 5
[9] = overall study population (Example 5)

SMILES: C[C@@]1(O)CC[C@H]2[C@H](CC[C@@H]3[C@@H]2CC[C@]2(C)[C@@H](C(=O)Cn4cc(C#N)cn4)CC[C@@H]32)C1 [Compound (1), 1-(2-((3R,5R,8R,9R,10S,13S,14S,17S)-3-hydroxy-3,13-dimethylhexadecahydro-1H-cyclopenta[a]phenanthren-17-yl)-2-oxoethyl)-1H-pyrazole-4-carbonitrile]
- Subjects with at least one Treatment period AE (Low Dose Cohort, ATD use at period-specific baseline No, Study Period 2): 51 (43.2%)
- Subjects with a TEAE leading to study drug discontinuation [1]: 0%
- Subjects with a Treatment cycle period AE leading to study withdrawal [1]: 1 (2.4%)
- Subjects with at least one TEAE [1]: 21 (51.2%)
- Subjects with at least one Treatment cycle period TEAE [1]: 14 (34.1%)
- Subjects with at least one Treatment cycle period serious TEAE [1]: 1 (2.4%)
- Subjects with at least one Treatment cycle period severe TEAE [1]: 2 (4.9%)
- Subjects with at least one Treatment period AE [1]: 12 (29.3%)
- Subjects with a TEAE leading to study drug discontinuation [2]: 0%
- Subjects with a Treatment cycle period AE leading to study withdrawal [2]: 0%
- Subjects with at least one TEAE [2]: 8 (33.3%)
- Subjects with at least one Treatment cycle period TEAE [2]: 6 (25.0%)
- Subjects with at least one Treatment cycle period serious TEAE [2]: 0%
- Subjects with at least one Treatment cycle period severe TEAE [2]: 0%
- Subjects with at least one Treatment period AE [2]: 5 (20.8%)
- Subjects with a TEAE leading to study drug discontinuation [3]: 0%
- Subjects with a Treatment cycle period AE leading to study withdrawal [3]: 0%
- Subjects with at least one TEAE [3]: 3 (33.3%)
- Subjects with at least one Treatment cycle period TEAE [3]: 2 (22.2%)
- Subjects with at least one Treatment cycle period serious TEAE [3]: 0%
- Subjects with at least one Treatment cycle period severe TEAE [3]: 0%
- Subjects with at least one Treatment period AE [3]: 2 (22.2%)
- Subjects with a TEAE leading to study drug discontinuation [4]: (1.5%)
- Subjects with a Treatment cycle period AE leading to study withdrawal [4]: (1.9%)
- Subjects with at least one TEAE [4]: (57.9%)
- Subjects with at least one Treatment cycle period TEAE [4]: (50.4%)
- Subjects with at least one Treatment cycle period serious TEAE [4]: (0.4%)
- Subjects with at least one Treatment cycle period severe TEAE [4]: (2.3%)
- Subjects with at least one Treatment period AE [4]: (47.4%)
- Subjects with a TEAE leading to study drug discontinuation [5]: 1 (1.1%)
- Subjects with a Treatment cycle period AE leading to study withdrawal [5]: 1 (1.1%)
- Subjects with at least one TEAE [5]: 48 (54.5%)
- Subjects with at least one Treatment cycle period TEAE [5]: 36 (40.9%)
- Subjects with at least one Treatment cycle period serious TEAE [5]: 1 (1.1%)
- Subjects with at least one Treatment cycle period severe TEAE [5]: 2 (2.3%)
- Subjects with at least one Treatment period AE [5]: 29 (33.0%)
- Subjects with a TEAE leading to study drug discontinuation [6]: 0%
- Subjects with a Treatment cycle period AE leading to study withdrawal [6]: 0%
- Subjects with at least one TEAE [6]: 19 (42.2%)
- Subjects with at least one Treatment cycle period TEAE [6]: 14 (31.1%)
- Subjects with at least one Treatment cycle period serious TEAE [6]: 0%
- Subjects with at least one Treatment cycle period severe TEAE [6]: 0%
- Subjects with at least one Treatment period AE [6]: 12 (26.7%)
- Subjects with a TEAE leading to study drug discontinuation [7]: 0%
- Subjects with a Treatment cycle period AE leading to study withdrawal [7]: 0%
- Subjects with at least one TEAE [7]: 7 (36.8%)
- Subjects with at least one Treatment cycle period TEAE [7]: 3 (15.8%)
- Subjects with at least one Treatment cycle period serious TEAE [7]: 0%
- Subjects with at least one Treatment cycle period severe TEAE [7]: 0%
- Subjects with at least one Treatment period AE [7]: 3 (15.8%)
- Subjects with a TEAE leading to study drug discontinuation [8]: 0%
- Subjects with a Treatment cycle period AE leading to study withdrawal [8]: 0%
- Subjects with at least one TEAE [8]: 6 (54.5%)
- Subjects with at least one Treatment cycle period TEAE [8]: 4 (36.4%)
- Subjects with at least one Treatment cycle period serious TEAE [8]: 0%
- Subjects with at least one Treatment cycle period severe TEAE [8]: 0%
- Subjects with at least one Treatment period AE [8]: 4 (36.4%)
- Proportion of subjects reporting TEAEs (Low Dose cohort, as printed in b423 (451/677)): 66.6%
- SAEs considered probably or possibly related to the study drug (Low dose cohort (30 mg only), treatment cycle 1): none
- Subjects reporting TEAEs leading to dose reduction (Cycle 1): 3.4%
- Subjects reporting TEAEs leading to dose reduction (Cycle 2): 4.4%
- Subjects reporting TEAEs leading to dose reduction (Cycle 3): 2.3%
- Subjects reporting TEAEs leading to dose reduction (Cycle 4 (0/43)): 0%
- Subjects reporting TEAEs leading to dose reduction (Cycle 5): 10%
- Subjects reporting TEAEs leading to dose reduction (overall (32/645)): 5.0%
- Subjects with at least one TEAE (Overall (N = 924)): 618 (66.9%)
- Subjects with at least one TEAE leading to study drug discontinuation (Overall (N = 924)): 32 (3.5%)
- Subjects with at least one TEAE leading to study withdrawal (Overall (N = 924)): 46 (5.0%)
- Subjects with at least one serious TEAE (Overall (N = 924)): 27 (2.9%)
- Subjects with at least one severe TEAE (Overall (N = 924)): 60 (6.5%)
- Subjects with Treatment Cycle Period TEAE (30 mg Cohort (N = 725)): 368 (50.8%)
- Subjects with Treatment Period TEAE (30 mg Cohort (N = 725)): 348 (48.0%)
- Subjects with Treatment Cycle Period TEAE (50 mg Cohort (N = 199)): 117 (58.8%)
- Subjects with Treatment Period TEAE (50 mg Cohort (N = 199)): 108 (54.3%)
- Subjects with Treatment Cycle Period TEAE (Dose Switch Cohort (N = 80)): 31 (38.8%)
- Subjects with Treatment Period TEAE (Dose Switch Cohort (N = 80)): 28 (35.0%)
- Subjects with Treatment Cycle Period TEAE (Low Dose Cohort (N = 645)): 337 (52.2%)
- Subjects with Treatment Period TEAE (Low Dose Cohort (N = 645)): 320 (49.6%)
- Subjects with Treatment Cycle Period TEAE (Overall (N = 924)): 485 (52.5%)
- Subjects with Treatment Period TEAE (Overall (N = 924)): 456 (49.4%)
- Severity of the majority of TEAEs (all dose cohorts): mild to moderate; also recorded: mild or moderate
- Suicidal ideation or suicidal behavior compared to baseline (C-SSRS) (any study period or dose cohort): no signal for increased suicidal ideation or suicidal behavior
- Tolerability (first course of Compound (1) 30 mg): generally well-tolerated
- Most common AEs that led to dose reduction (in vivo): Somnolence, Dizziness, Sedation and Headache
- TEAE diarrhea [9]: 6.3%
- TEAE dizziness [9]: 9.1%
- TEAE dry mouth [9]: 5.5%
- TEAE headache [9]: 13.9%
- TEAE insomnia [9]: 5.4%
- TEAE sedation [9]: 8.7%
- TEAE somnolence [9]: 12.8%
- TEAE upper respiratory infection [9]: 6.3%
- Overall safety observations with 50 mg versus safety findings with 30 mg (subjects receiving Compound (1) 50 mg): comparable
- Subjects reporting SAEs (treatment cycle 1, 50 mg cohort (5/199)): 2.5%
- Subjects reporting SAEs (treatment cycle 1, Low Dose cohort (6/645)): 0.9%
